Measured values taken from the RepoRT retention time repository (doi:10.1021/acs.analchem.2c02893).

experiment: RP, Thermo Scientific Acclaim RSLC 120 C18, 100 × 2.1 mm, 2.2 µm, 30 °C, 0.2 mL/min, estimated dead time 1.1 min; A: 90% water + 10% methanol + 0.01% formic acid + 5 mM ammonium formate, pH 3.61; B: methanol + 0.01% formic acid + 5 mM ammonium formate, pH 3.61; gradient (min/%B) 0/1 1/1 2/39 13/99.9 15/99.9 15.1/1 20.1/1; conditions: stereoisomer not certain

Point of comparison: CN(C)CCN(Cc1ccccc1)c1ccccn1 [Pyribenzamine (Tripelenamine. Azaron)], LC retention time 5.86 min. Against it:
- CCOC(=O)C1=NOC(c2ccccc2)(c2ccccc2)C1 [Isoxadifen-ethyl] — 1.8-fold higher, 10.7 min
- CC(C)NCC(O)c1ccc(NS(C)(=O)=O)cc1 (stereo not drawn) [Sotalol] — 2-fold lower, 2.96 min
- CCCC1COC(Cn2cncn2)(c2ccc(Cl)cc2Cl)O1 (stereo not drawn) [Propiconazole] — 1.9-fold higher, 11 min
- O=S(=O)(c1ccc(O)cc1)c1ccc(O)cc1 [Bisphenol S] — within 1.5-fold, 5.35 min
- CCCCC1C(=O)N(c2ccccc2)N(c2ccccc2)C1=O [Phenylbutazone] — 1.5-fold higher, 8.98 min
- Cc1cccc(C)c1N(C(=O)CCl)C1CCOC1=O (stereo not drawn) [Ofurace] — within 1.5-fold, 7 min
- Cc1cc(C)nc(Nc2ccccc2)n1 [Pyrimethanil] — 1.6-fold higher, 9.44 min
- CC(=O)Nc1ccc(S(=O)(=O)Nc2ncccn2)cc1 [Sulfadiazine-N4-Acetyl] — within 1.5-fold, 4.11 min
- CC(=O)Nc1c(I)c(NC(C)=O)c(I)c(C(=O)O)c1I [Diatrizoate (Amidotrizoate acid)] — 2.1-fold lower, 2.79 min
- CC(NC(=O)C(N)CC(=O)O)C(=O)NC1C(C)(C)SC1(C)C (stereo not drawn) [Alitame] — within 1.5-fold, 6.09 min
- CCCCCCCCn1sc(Cl)c(Cl)c1=O [4-5-Dichloro-2-n-octyl-isothiazol-3(2H)-on (DCOIT)] — 2.1-fold higher, 12.5 min
- CSC(=O)c1cccc2nnsc12 [Acibenzolar-S-Methyl] — 1.6-fold higher, 9.65 min
- CCOc1ccc(NC(=O)OC(C)C)cc1OCC [Diethofencarb] — 1.5-fold higher, 9.04 min
- OCCN1CCN(CCCN2c3ccccc3Sc3ccc(C(F)(F)F)cc32)CC1 [Fluphenazine] — 1.7-fold higher, 9.93 min
- Nc1c(Cl)cc([N+](=O)[O-])cc1Cl [Dicloran] — 1.5-fold higher, 8.84 min
- CC(C)N=C(N)N=C(N)Nc1ccc(Cl)cc1 [Proguanil] — within 1.5-fold, 6.98 min
- Clc1ccccc1C(c1ccccc1)(c1ccccc1)n1ccnc1 [Clotrimazole] — 1.9-fold higher, 11.2 min
- CCOP(=O)(NC(C)C)Oc1ccc(S(C)(=O)=O)c(C)c1 (stereo not drawn) [Fenamiphos - sulfone] — within 1.5-fold, 7.21 min
- CCCCCn1cc(C(=O)c2cccc3ccccc23)c2ccc(O)cc21 [JWH-018-M-6-OH-Ind] — 1.9-fold higher, 11.2 min
- CC(C)C1(NC(=O)C2CC3c4cccc5[nH]cc(c45)CC3N(C)C2)OC2(O)C3CCCN3C(=O)C(Cc3ccccc3)N2C1=O (stereo not drawn) [Ergocristine-Dihydro] — within 1.5-fold, 8.17 min
- Cc1ncc([N+](=O)[O-])n1CCCO [Ternidazole] — within 1.5-fold, 4.21 min
- Nc1ccc(S(=O)(=O)Nc2ccccn2)cc1 [Sulfapyridine] — 1.5-fold lower, 3.8 min
- CC(COc1ccc(C(C)(C)C)cc1)OS(=O)OCCCl (stereo not drawn) [Aramite (total)] — 2.1-fold higher, 12.2 min
- CCOC(=O)C=C1SC(N2CCCCC2)C(=O)N1CC (stereo not drawn) [Piprozolin] — 1.7-fold higher, 9.85 min
- CCc1nn(C)c(C(=O)NCc2ccc(Oc3ccc(C)cc3)cc2)c1Cl [Tolfenpyrad] — 2.1-fold higher, 12.4 min
- CCCCCCOC(=O)NC(=N)c1ccc(NCc2nc3cc(C(=O)N(CCC(=O)OCC)c4ccccn4)ccc3n2C)cc1 [Dabigatran etexilate] — 1.6-fold higher, 9.29 min
- CN1C2CCC1CC(OC(=O)C(CO)c1ccccc1)C2 (stereo not drawn) [Atropine] — within 1.5-fold, 4.36 min
- CCC(=O)C1C(=O)CC(C(=O)O)CC1=O (stereo not drawn) [Prohexadione] — within 1.5-fold, 5.63 min
- CC1(C)C(C=C(Cl)C(F)(F)F)C1C(=O)OC(C#N)c1cccc(Oc2ccccc2)c1 (stereo not drawn) [Cyhalothrin (lambda-)] — 2.2-fold higher, 13 min
- CCCCCCC(C)(C)c1ccc(C2CC(O)CCC2CCCO)c(O)c1 (stereo not drawn) [CP 55-940] — 2-fold higher, 12 min
- c1ccc2c(c1)Cc1cccnc1N1CCNCC21 (stereo not drawn) [Mirtazapine-Desmethyl (normirtazapine)] — within 1.5-fold, 5.31 min
- CCCCN1CC(=O)N2C(Cc3c([nH]c4ccccc34)C2c2ccc3c(c2)OCO3)C1=O (stereo not drawn) [Tadalafil-n-Butyl] — 1.7-fold higher, 10.2 min
- CCC(C)Nc1c([N+](=O)[O-])cc(C(C)(C)C)cc1[N+](=O)[O-] (stereo not drawn) [Butralin] — 2.2-fold higher, 13 min
- CCCC(NC)C(=O)c1ccccc1 (stereo not drawn) [Pentedrone] — within 1.5-fold, 4.89 min
- COc1ccsc1CN(C(=O)CCl)c1c(C)cccc1C [Thenylchlor] — 1.7-fold higher, 10.1 min
- CCCN(CCC)CCc1cccc2c1CC(=O)N2 [Ropinirole] — within 1.5-fold, 3.98 min
- O=C(NCC1CN(c2ccc(N3CCOCC3=O)cc2)C(=O)O1)c1ccc(Cl)s1 (stereo not drawn) [Rivaroxaban] — within 1.5-fold, 7.03 min
- CCCNCCOc1c(Cl)cc(Cl)cc1Cl — within 1.5-fold, 6.99 min
- CCOP(=S)(OCC)Oc1nc(Cl)n(C(C)C)n1 [Isazophos] — 1.7-fold higher, 9.87 min
- CCC1OC(=O)C(C)C(OC2CC(C)(OC)C(O)C(C)O2)C(C)C(OC2OC(C)CC(N(C)C)C2O)C(C)(OC)CC(C)C(=O)C(C)C(O)C1(C)O (stereo not drawn) [Clarithromycin] — 1.6-fold higher, 9.18 min
- CNP(=O)(OC)Oc1ccc(C(C)(C)C)cc1Cl (stereo not drawn) [Crufomate] — 1.8-fold higher, 10.5 min
- COC(=O)C(NC(=O)c1nn(CCCCCF)c2ccccc12)C(C)C (stereo not drawn) [AMB-5F] — 1.8-fold higher, 10.5 min
- Nc1ccc(S(=O)(=O)Nc2cncc(Cl)n2)cc1 [Sulfaclozine] — within 1.5-fold, 5.45 min
- O=c1[nH]c(Cl)c(Cl)cc1Cl [3.5.6-Trichloro-2-pyridinol] — 1.5-fold higher, 8.96 min
- COc1cc(OC)nc(NC(=O)NS(=O)(=O)c2cc(NC=O)ccc2C(=O)N(C)C)n1 [Foramsulfuron] — within 1.5-fold, 7.54 min
- Clc1ccccc1CN1CCc2sccc2C1 [Ticlopidine] — 1.6-fold higher, 9.25 min
- CC(C)NCC(O)COc1ccc(CC(=O)O)cc1 (stereo not drawn) [Atenolol acid (Metoprolol acid)] — within 1.5-fold, 3.93 min
- NCC1(CC(=O)O)CCCCC1 [Gabapentin] — 1.6-fold lower, 3.78 min
- CCCc1nn(C)c2c(=S)nc(-c3cc(S(=O)(=O)N4CC(C)NC(C)C4)ccc3OCC)[nH]c12 (stereo not drawn) [Sildenafil Thiodimethyl] — 1.7-fold higher, 9.91 min
- CC(=O)Oc1ccc2c3c1OC1C(OC(C)=O)C=CC4C(C2)N(C)CCC341 (stereo not drawn) [Heroin] — within 1.5-fold, 4.63 min
- Clc1ccc2c(c1)CCc1cccnc1C2=C1CCNCC1 [Desloratadine] — within 1.5-fold, 7.48 min
- CCN(N=O)C(C)Cc1cccc(C(F)(F)F)c1 (stereo not drawn) [Fenfluramine-n-Nitroso] — 1.6-fold higher, 9.38 min
- Cc1occc1C(=O)Nc1ccccc1 [Fenfuram] — within 1.5-fold, 7.59 min
- CNCC(O)c1ccc(O)cc1 (stereo not drawn) [Synephrine] — 3.7-fold lower, 1.6 min
- CC(C)(C)c1ccc(C(=O)CCCN2CCC(OC(c3ccccc3)c3ccccc3)CC2)cc1 [Ebastine] — 1.9-fold higher, 10.9 min
- CNCCN1C(=O)C(OC(C)=O)C(c2ccc(OC)cc2)Sc2ccccc21 (stereo not drawn) [Diltiazem-Nor] — within 1.5-fold, 7.21 min
- COC(C)C(O)(C(=O)OCC1=CC[N+]2([O-])CCC(O)C12)C(C)C (stereo not drawn) [Heliotrine-N-oxide] — 1.7-fold lower, 3.49 min
- Nc1ccc([N+](=O)[O-])cc1C(=O)c1ccccc1 [Benzophenone -2-Amino-5-nitro] — 1.5-fold higher, 8.99 min
- CC(=O)C1CCC2C3C=CC4=CC(=O)CCC4(C)C3CCC12C (stereo not drawn) [Dydrogesterone] — 1.8-fold higher, 10.7 min
- O=C(NC(=O)c1c(F)cccc1F)Nc1ccc(C(F)(F)F)cc1 [Penfluron] — 1.9-fold higher, 10.9 min
- O=C1NCCN1CCN1CCC(c2cn(-c3ccc(F)cc3)c3ccc(Cl)cc23)CC1 [Sertindole] — 1.6-fold higher, 9.26 min
- NC(=O)c1ccc(N)cc1 [4-Aminobenzamide] — 2.5-fold lower, 2.37 min
- CCCCCCCCCCCCNC [N-Methyldodecylamine] — 1.8-fold higher, 10.5 min
- Cc1noc(NS(=O)(=O)c2ccc(N)cc2)c1C [Sulfisoxazole] — within 1.5-fold, 4.71 min
- Cc1c(N(C)C)c(=O)n(-c2ccccc2)n1C [Aminophenazone. Amidopyrin] — within 1.5-fold, 5.21 min
- CN(C)CCOCC(=O)NC12CC3CC(CC(C3)C1)C2 [Tromantadine] — within 1.5-fold, 6.64 min
- CC(C)N(C(=O)C(=O)O)c1ccccc1 [Propachlor-OXA] — within 1.5-fold, 5.13 min
- CCCC1CC(C(=O)NC(C(C)O)C2OC(SC)C(O)C(O)C2O)N(C)C1 (stereo not drawn) [Lincomycin] — within 1.5-fold, 4.08 min
- CCCCN(C)C(=O)Nc1ccc(Cl)c(Cl)c1 [Neburon] — 1.8-fold higher, 10.7 min
- CC(C)(c1ccc(OCC(O)CCl)cc1)c1ccc(OCC(O)CCl)cc1 (stereo not drawn) [Bisphenol<U+00A0>A bis(3-chloro-2-hydroxypropyl) ether] — 1.9-fold higher, 11.4 min
- CN(C)C(=O)Nc1ccc(Cl)c(Cl)c1 [Diuron] — within 1.5-fold, 8.64 min
- NS(=O)(=O)c1cc2c(cc1Cl)NCNS2(=O)=O [Hydrochlorothiazide (NH4)] — 1.8-fold lower, 3.24 min
- CC1(C)OC2CC3C4CC(F)C5=CC(=O)C=CC5(C)C4C(O)CC3(C)C2(C(=O)CO)O1 (stereo not drawn) [Flunisolide] — 1.5-fold higher, 9.01 min
- CCc1cccc(C)c1N(C(=O)C(=O)O)C(C)C(=O)O (stereo not drawn) — within 1.5-fold, 6.84 min
- CC12CCC(=O)C=C1CCC1C2C(=O)CC2(C)C1CCC2(O)C(=O)CO (stereo not drawn) [Cortisone E  (4-Pregnene-17.21-diol-3.11.20-trione)] — within 1.5-fold, 7.41 min
- CC(=O)OC1CN2CCC1CC2 (stereo not drawn) [Aceclidine] — within 1.5-fold, 4.87 min
- CC(C)OP(=O)(OC(C)C)SCc1ccccc1 [Iprobenfos] — 1.8-fold higher, 10.6 min
- CCc1cc2cc(OC)c(OC)cc2c(Cc2ccccc2)n1 [Moxaverine] — within 1.5-fold, 8.29 min
- COc1cnc(NS(=O)(=O)c2ccc(N)cc2)nc1 [Sulfameter (sulfumetin)] — within 1.5-fold, 4.18 min
- CN(C)C(=O)Nc1ccc(Oc2ccc(Cl)cc2)cc1 [Chloroxuron (Chloroxifenidim)] — 1.7-fold higher, 9.99 min
- COC(=O)C(Cc1ccccc1)NC(=O)C(CC(=O)O)NCCC(C)(C)C (stereo not drawn) [Neotam] — 1.5-fold higher, 8.83 min
- CCSC(=O)N(CC)C1CCCCC1 [Cycloate] — 2-fold higher, 11.7 min
